In ChEMBL document CHEMBL3585247, “In Vitro Inhibitory Effects of 8-O-Demethylmaritidine and Undulatine on Acetylcholinesterase and Their Predicted Penetration across the Blood-Brain Barrier” (J Nat Prod, 2015):
pIC50: −log10 of the molar value.

Columns and labels:
Acetylcholinesterase = Acetylcholinesterase (Electrophorus electricus, UniProt O42275); assay: Inhibition of electric eel AChE using acetylthiocholine as substrate assessed as concentration of 5-thio-2-nitrobenzoic acid ion formed by spectrophotometric/Ellman's method
[1] = Permeability of the compound by PAMPA-BBB assay

Acetylcholinesterase, sequence (O42275 whole entry): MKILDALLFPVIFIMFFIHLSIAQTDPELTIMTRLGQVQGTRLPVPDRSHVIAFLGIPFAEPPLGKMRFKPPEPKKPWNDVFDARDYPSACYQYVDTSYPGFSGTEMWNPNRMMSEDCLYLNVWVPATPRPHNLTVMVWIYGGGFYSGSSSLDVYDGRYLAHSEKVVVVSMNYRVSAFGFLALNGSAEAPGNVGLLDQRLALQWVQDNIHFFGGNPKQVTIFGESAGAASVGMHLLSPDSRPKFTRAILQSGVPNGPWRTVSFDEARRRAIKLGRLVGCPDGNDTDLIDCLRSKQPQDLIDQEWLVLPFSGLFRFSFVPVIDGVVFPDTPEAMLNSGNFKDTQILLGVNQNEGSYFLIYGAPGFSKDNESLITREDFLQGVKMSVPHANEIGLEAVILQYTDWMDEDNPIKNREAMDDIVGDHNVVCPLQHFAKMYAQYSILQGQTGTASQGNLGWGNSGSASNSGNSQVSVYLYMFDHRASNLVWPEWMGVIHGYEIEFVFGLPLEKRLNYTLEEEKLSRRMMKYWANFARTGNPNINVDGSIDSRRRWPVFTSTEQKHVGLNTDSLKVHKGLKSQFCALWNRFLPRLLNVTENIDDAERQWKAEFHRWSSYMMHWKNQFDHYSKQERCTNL

Row | SMILES | pIC50 (Acetylcholinesterase) | Papp [1] [×10⁻⁶ cm/s]
1 | COc1c2c(cc3c1[C@@]14CCN(C3)[C@@H]1C[C@@H](OC)[C@@H]1O[C@@H]14)OCO2 | 5.13 | 18.3
2 | COc1cc2c(cc1O)CN1CC[C@@]23C=CC(O)C[C@H]13 (some centres undefined) | 4.24 | 0.7
